# Several values for one entry are separate records, joined by “and”; a condition that tells them apart may be missing. Equal entries are not always repeated.
# Tests used:
# Pi uptake capacity = experiment: Phosphate uptake experiments (33PO4); type: in vivo, Arabidopsis thaliana; conditions: −Pi+PTN1 vs −Pi, 7-day-old plantlets, FIG. 3 (B)
# Protocol: Phosphate uptake experiments were performed as previously described by Narang et al. (2000). 24 seedlings per conditions were incubated separately in a phosphate incubation solution containing ^33PO4 (5 mM MES, 0.1 mM CaCl2, 20 μM KH2PO4, 0.15 μCi/ml ^33PO4) for 2 h. After incubation in the uptake solution, plantlets were transferred to a chilled desorption medium (5 mM MES, 0.1 mM CaCl2, 1 mM KH2PO4) for 2 h at 4° C. Then, the seedlings were dried in scintillation vials at 60° C. overnight. An amount of 2 ml of scintillation cocktail (InstaGel, PerkinElmer, Wellesley, Mass., USA) was added and the radioactivity was measured with a scintillation analyzer (TRICARB, Packard instrument company). The amount of phosphate absorbed during the experiment was calculated and normalized per cm of root.
# pdr2 and phr1 mutants = experiment: Primary root growth of pdr2 and phr1 mutants; type: in vivo, Arabidopsis thaliana; conditions: 40 μM, 9 days after germination, FIG. 7 (E)
# Source text: A “chemical genetics” approach has been carried out to isolate compounds that inhibit the phosphate (Pi) response in Arabidopsis thaliana. Compounds were screened for their ability to inhibit the expression of a phosphate starvation marker, namely the high affinity Pi transporter PHT1,4 gene. For the screening, the A. thaliana pht1;4-1 line (ecotype Wassilewskija) was chosen (Misson et al., 2004). It contains a T-DNA construct inserted into Pht1;4 gene creating a transcriptional fusion with a GUS reporter gene. For phenotypic analyses, A. thaliana Columbia and various lines derived from this ecotype were used. They are either transgenic lines expressing reporter gene as cycB1::GUS (Colón Carmona et al., 1999), MGD3::LUC, PHT1;4::LUC, At1g73010::LUC or various mutants affecting root response to low Pi such as: pdr2 (Ticconi et al., 2004), lpr1, lpr2 (Svistoonoff et al., 2007), lpi1, lpi2 and lpi3 (Sanchez-Calderon et al., 2006).
# In the Pi deficient medium, NaCl (0.5 mM) was used to replace the equivalent amount of sodium provided by NaH2PO4. For controls of the effects of the compounds, 1% of DMSO (Dimethyl sulfoxid, SIGMA, 472301), solvent for the tested compounds, was added. […] Root architecture and aerial part area were quantified using program ImageJ.
# PHT1 genes (PHT1;4) = experiment: qPCR of PHT1 transcript level on root mRNA; type: in vivo, Arabidopsis thaliana
# Protocol: (§1) Plant RNA was extracted with the RNeasy kit (QIAGEN, France). For transcriptome data, RNA were analysed by the CATMA technology (Complete Arabidopsis Transcriptome Microarray). For qPCR, poly(dT) cDNA were prepared from 500 ng total RNA with Superscript III reverse transcriptase (Invitrogen, France) and analysed on a LightCycler 480 apparatus (Roche Diagnostics, France) with the SYBR Green I Master kit (Roche Diagnostics, France) according to the manufacturer's instructions. Targets were quantified with specific primer pairs designed with Primer3 website (http://frodo.wi.mit.edu/primer3/) (see Table II below). Biological triplicates were performed for all experiments. Expression levels were normalized using At2g16600, At3g04120, At1g35160 and At1g32050 genes.
# root cortical cells = experiment: Cortical cell size of root; type: in vivo, Arabidopsis thaliana; conditions: −Pi seedlings, FIG. 7 (C)
# [1] = Optical density curves of PTN1 with FeCl2; type: physicochemical; conditions: PTN1 40 μM + FeCl2 10 μM, FIG. 9 (A)
# Col-0 plants = experiment: Shoot (rosette) area after 28 days; type: in vivo, Arabidopsis thaliana; conditions: four weeks on −Pi medium, FIG. 10 (A), (B)
# Protocol: In the Pi deficient medium, NaCl (0.5 mM) was used to replace the equivalent amount of sodium provided by NaH2PO4. For controls of the effects of the compounds, 1% of DMSO (Dimethyl sulfoxid, SIGMA, 472301), solvent for the tested compounds, was added. After 2 days at 4° C., the plates were placed in a vertical position and plants were grown in a culture chamber under a 16 h light/8 h dark regime (24/21° C., 150 μE m^−2s^−1). For 4 weeks culture, large plates (24×24 cm) were placed in a horizontal position. Root architecture and aerial part area were quantified using program ImageJ.
# cycB1::GUS = experiment: Cell cycle marker cycB1::GUS in root tip; type: in vivo, Arabidopsis thaliana; conditions: 40 μM, −Pi seedlings, FIG. 7 (B)
# Protocol: The GUS activity was detected as previously described by Jefferson et al. (1987), using a GUS staining solution containing 50 mM sodium phosphate buffer pH 7.0; 0.01% Triton X-100, 1 mM K3Fe(CN)6, 1 mM K4Fe(CN)6, 1 mg/ml 5-bromo-4-chloro-3-indolyl B-D-glucuronide (X-Gluc). For cycB1::GUS staining, plants were incubated 6 hours at 37° C.
# [2] = system: phospholipids / glycolipids; experiment: Lipid composition of aerial part; type: in vivo, Arabidopsis thaliana
# Protocol: Lipids and anthocyanins were analyzed as previously described by Jouhet (2003) and Ticconi (2001).
# [3] = system: genes regulated by Pi starvation; experiment: Global transcriptomic analysis (CATMA) of roots; type: in vivo, Arabidopsis thaliana
# Protocol: as §1
# To investigate on a wider scale the putative Phosphatin1 effect, a transcriptional analysis of the global genome was performed using the CATMA technology (http://www.catma.org/, URGV, France). It was compared transcript expression in roots of 14-days-old plantlets, grown in −Pi, −Pi+PTN1 or +Pi.
# Table III: Comparison of PTN1 treatment and phosphate supply on global transcriptomic analysis. For this analysis, 14-days-old WT root samples of plants grown on −Pi, −Pi+PTN1 (40 μM) and +Pi were used. Data are expressed as ratio values between +Pi and −Pi or −Pi+PTN1 and −Pi respectively.
# [4] = system: SQD2, MGD3, PLDz2, SQD1 and MGD2; experiment: qPCR of genes involved in lipid synthesis; type: in vivo, Arabidopsis thaliana; conditions: 40 μM, 14 days, FIG. 5 (A)
# Protocol: as §1
# [5] = −Pi medium containing PTN1, FIG. 5 (B)
# [6] = 14-days-old roots, −Pi+PTN1 40 μM vs −Pi
# [7] = gene classes of Thibaud et al. (2010)
compound,measurement,setting,value
O=c1c(Sc2ccc(Cl)cc2)c(Sc2ccc(Cl)cc2)c1=O [PTN1],reduction of Pi uptake capacity,Pi uptake capacity,25%
same,root growth of pdr2 mutant,pdr2 and phr1 mutants,substantially reverted the root growth defect
same,root growth restriction of phr1 mutant imposed by −Pi,pdr2 and phr1 mutants,partially alleviated
same,reduction of the impact of Pi starvation on the level of induction of PHT1 transcripts,"PHT1 genes (PHT1;4); 40 μM, roots, 7-day-old plantlets, FIG. 3 (A)",at least 50%
same,efficiency on PHT1;4 relative to PTN2,PHT1 genes (PHT1;4); FIG. 2 (B),twice more efficient than PTN2
same,effect on PHT1;4 transcript level,"PHT1 genes (PHT1;4); qPCR on root mRNA, FIG. 2 (B)",dose dependant manner
same,root cortical cell elongation,root cortical cells,restored root cell elongation of −Pi seedlings to an extant closed to the untreated control grown on a +Pi medium
same,absorption spectrum of solution containing PTN1 and Fe2+,[1],identical to the PTN1 control without FeCl2
same,rosette area (leaf growth) vs −Pi,Col-0 plants,+50%
same,CycB1 expression in root tip,cycB1::GUS,expressed in the root tip of −Pi seedlings but there were fewer stained cells than in the +Pi control
same,reduction of DGDG content,"[2]; Pi-starved plants, aerial part, 10-day-old, FIG. 5 (C)",27%
same,glycolipids share in ratio of phospholipids onto glycolipids,[2]; [5],75%
same,phospholipids share in ratio of phospholipids onto glycolipids,[2]; [5],25%
same,PC and PE content,"[2]; −Pi seedlings, FIG. 5 (C)",partially reverted the effect of −Pi
same,genes de-regulated in an opposite way compared with +Pi treatment,"[3]; 40 μM, 14-days-old roots",around 4%
same,number of the 279 genes induced +Pi/−Pi also induced by PTN1,"[3]; 40 μM, 14-days-old roots",115 genes
same,number of the 279 genes induced +Pi/−Pi repressed by PTN1,"[3]; 40 μM, 14-days-old roots",11 genes
same,number of the 783 genes repressed +Pi/−Pi also repressed by PTN1,"[3]; 40 μM, 14-days-old roots",316 genes
same,number of the 783 genes repressed +Pi/−Pi induced by PTN1,"[3]; 40 μM, 14-days-old roots",30 genes
same,percentage of the 279 genes induced +Pi/−Pi also induced by PTN1,"[3]; 40 μM, 14-days-old roots",41% and 41.2%
same,percentage of the 279 genes induced +Pi/−Pi repressed by PTN1,"[3]; 40 μM, 14-days-old roots",3.9%
same,percentage of the 783 genes repressed +Pi/−Pi also repressed by PTN1,"[3]; 40 μM, 14-days-old roots",40% and 40.3%
same,percentage of the 783 genes repressed +Pi/−Pi induced by PTN1,"[3]; 40 μM, 14-days-old roots",3.8%
same,number of genes induced vs −Pi,[3]; [6],1001 genes
same,number of genes repressed vs −Pi,[3]; [6],1666 genes
same,number of genes modulated vs −Pi,"[3]; 14-days-old roots, −Pi+PTN1 40 μM vs −Pi, more than two fold change, Bonferroni <0.05",2667 genes
same,local genes repressed by Pi also repressed by PTN1,[3]; [7],45%
same,systemic genes induced by Pi also regulated by PTN1 in the same direction,[3]; [7],55%
same,systemic genes repressed by Pi also regulated by PTN1 in the same direction,[3]; [7],65%
same,expression of PHT1;5 and PHT1;8,[3]; transcriptomic analysis,down regulation
same,expression of lipid conversion genes including PLDζ2 and MGD3,[3]; transcriptomic analysis,down regulated
same,"expression of SQD2, MGD3, PLDz2, SQD1 and MGD2",[4],repressed the expression
